Measured values taken from US7781423B2, “Compounds to promote regeneration of bone marrow” (priority 2007, dated 2010).

Tested on: granulocyte-macrophage colony-forming units (CFU-GM)
Experiment: Recovery of bone marrow function after sublethal whole body irradiation (nucleated BM cells, CFU-GM assay)
Type: in vivo, C57B1 mice
Conditions: for CFU-GM per femur / CFU-GM/10^5 nucleated BM cells: CCompound1 4.5 mg per kg i.p. daily, day -3 to day +3; for CFU-GM/10^5 nucleated BM cells: colonies counted on day 7 of culture
Protocol: This experiment served to determine if CCompound1 was able to promote regeneration of partially ablated bone marrow from endogenous stem cells i.e. promote restoration of the capacity of bone marrow to produce blood cells. The CFU-GM assay was performed because the number of CFU-GM per femur is a good indicator of bone marrow regeneration. Ballestrero, A., Ferrando, F., Garuti, A., Basta, P., Gonella, R., Stura, P., Mela, G. S., Sessarego, M, Gobbi, M. and Patrone, F., “Comparative effects of three cytokine regimens after high-dose cyclophosphamide: Granulocyte colony-stimulating factor, granulocyte-macrophage colony-stimulating factor (GM-CSF), and sequential interleukin-3 and GM-CSF,” J. Clin. Oncol., 17, 1296-1303 (1999).
C57B1 female (10-14 weeks old) mice received sublethal (250 cGy) whole body irradiation from a ^137Cesium source (day 0). Starting three days before irradiation, animals received daily 4.5 mg per kg of CCompound1 via intraperitoneal injection; this treatment also was provided on day 0 and once daily for three days subsequent to irradiation. In another group, mice were injected only with physiological saline. The subsequent procedure has been reported in Vas, V., Fajka-Boja, R., Ion, G. A., Dudics, V., Monostori, E. and Uher, F., “Biphasic effect of recombinant Galectin-1 on the growth and death of early hematopoietic cells,” Stem Cells, 23, 279-287 (2005). Briefly, bone marrow was flushed from the femurs with Iscove's modified Dulbecco's medium (Gibco BRL, Gaithersburg, Md., USA), and after standard erythrocyte lysis, nucleated cells were counted using a hemocytometer. […] To measure the formation of the granulocyte-macrophage colony-forming units (CFU-GM), a semisolid colony-forming cell assay was used. Nucleated bone marrow cells (isolated on the days as indicated above) were plated in 35-mm Petri dishes (Costar, Cambridge, Mass., USA) in Iscove's modified Dulbecco's medium supplemented with 1% methylcellulose, 30% horse serum (Gibco), 10% WEHI-3B conditioned medium as a source of growth factors, 4 mM L-glutamine, 0.25 mM a-thioglycerol (Gibco), 1% deionized bovine serum albumine (Sigma), and antibiotics (Gibco). Cells were cultured at 37° C. in 5% CO2/95% air atmosphere and colonies were counted on day 7 in the same dish. Colonies containing at least 50 cells were counted which is a generally accepted value in the literature. Each value represents the mean±st. dev. of 9 samples (3 parallel dishes from each animal).

[1] = day 3 after 250 cGy irradiation
[2] = day 6 after 250 cGy irradiation
[3] = day 10 after 250 cGy irradiation

SMILES: Cc1c(OCC(O)C[N+](C)(C)C)cc2c(=O)c3ccccc3sc2c1C.[Cl-] (stereo not shown) [CCcompound1, [3-(3,4-Dimethyl-9-oxo-9H-thioxanthen-2-yloxy)-2-hydroxypropyl]trimethyl-ammonium chloride]
- CFU-GM per femur [1]: 508
- CFU-GM/10^5 nucleated BM cells [1]: 87.8 ± 9.0
- CFU-GM per femur [2]: 713
- CFU-GM/10^5 nucleated BM cells [2]: 92.3 ± 7.2
- CFU-GM per femur [3]: 1,081
- CFU-GM/10^5 nucleated BM cells [3]: 94.4 ± 8.1
- effect on number of nucleated bone marrow cells and CFU-GM (from the third day on after sublethal irradiation): enhanced the number of nucleated bone marrow cells and CFU-GM
